Test results as given in US20050079594A1, “Method of removing a biofilm” (Karine Marion, priority 2002, published 2005).

What was measured:
biofilm 1 = assay: Area covered by biofilm 1 (staining, image analysis); format: cell-based
Description: The method was tested and implemented experimentally on five types of biofilm; biofilms 1, 2, 3 and 5 were obtained using an in vitro model that mimics the hemodialysis generator: • biofilm 1: enriched with nutrients for accelerated growth (3 days) moderate thickness (about 10^5 CFU/cm^2), very rich in slime; • biofilm 2: not enriched with nutrients having grown over 1 month, equivalent to those actually encountered in dialysis generators (about 10^3 CFU/cm^2) very rich in scale crystals; • biofilm 3: enriched with nutrients for accelerated growth (5 days), thick (about 10^9 CFU/cm^2) very rich in slime; • biofilm 4: specimen of tubing conveying water for hemodialysis, taken from a center, covered with a biofilm of about 10^3 CFU/cm^2 but having grown over more than one year; and • biofilm 5: enriched with nutrients for accelerated growth, having grown in a “preventive” model over three weeks. Production of the In Vitro Model
A 250 ml reactor vessel was filled with a nonsterile dialysate, prepared by diluting sterile apyrogenic hemodialysis concentrates (Clearflex® from Bieffe Medical) with nonsterile osmosed water containing Pseudomonas putida, Pseudomonas fluorescens and Flavimonas orizibitans, produced continuously in the laboratory.
The contaminating medium was circulated in a closed circuit in a loop of silicon tubing 1.5 meters in length and 5 mm inside diameter with a flow rate of 500 ml/min by a peristaltique pump. All the tubing and the reactor vessel were sterilized beforehand in an autoclave at 121° C. for 30 minutes. Thus, the dialysate naturally contaminated by the bacteria in the water was the only source of microorganisms.
The entire system was maintained at a temperature of 37° C. by a hotplate on which the reactor vessel was placed.
In the case of biofilms 1, 3 and 5, the bacterial growth and consequently the development of the biofilm were accelerated by adding an LB culture medium diluted 50-fold, i.e. an LB culture medium diluted to […] and topped up with a flow equal to 1/10th of that of the dialysate. The dialysate and culture medium top-up flow rates, regulated by a peristaltic pump, were 5 and 0.5 ml/minute, respectively.
The tubings covered with biofilms 1, 2 and 3 were cut into segments 5 cm in length. For screening on biofilms 1 and 2, each segment for undergoing one of the various treatments to be investigated was selected by drawing lots. Control specimens taken at random from the silicon loop were kept untreated.
The tubing segments to be treated were attached to the descending branch of a set-up consisting of two tubings—one ascending and the other descending, a peristaltic pump and a water bath (for treatments carried out a temperature above 20° C.). The product to be tested in “recirculation” mode was dissolved in a 100 ml flask and driven by the peristaltic pump at a rate of 500 ml/min in a closed circuit through the tubings for a duration corresponding to the contact times given in table II. The product to be tested in “static” mode was dissolved in a 100 ml flask and driven by the peristaltic pump until the tubings had been filled; the pump was then stopped and the product left in stasis for the desired contact time. After each treatment by a given product, the tubing specimens were rinsed for five minutes with osmosed water.
The control and treated biofilms were stained: • either with a 0.25% crystal violet solution; • or with a Baclight® fluorochrome solution (Syto 9 and propidium iodide). The viable bacteria show up green while the dead bacteria show up yellow or red.
The silicon tubing specimens covered with stained biofilms were attached to glass slides and observed under an optical microscope, the microscope being connected to a camera and to “Scion Images” image analysis software. […]

biofilm 2 = assay: Area covered by biofilm 2 (staining, image analysis); format: cell-based; settings: Treat. No. 7, 3%, 37 °C, 5 min, Recirc
Description: The method was tested and implemented experimentally on five types of biofilm; biofilms 1, 2, 3 and 5 were obtained using an in vitro model that mimics the hemodialysis generator: • biofilm 1: enriched with nutrients for accelerated growth (3 days) moderate thickness (about 10^5 CFU/cm^2), very rich in slime; • biofilm 2: not enriched with nutrients having grown over 1 month, equivalent to those actually encountered in dialysis generators (about 10^3 CFU/cm^2) very rich in scale crystals; • biofilm 3: enriched with nutrients for accelerated growth (5 days), thick (about 10^9 CFU/cm^2) very rich in slime; • biofilm 4: specimen of tubing conveying water for hemodialysis, taken from a center, covered with a biofilm of about 10^3 CFU/cm^2 but having grown over more than one year; and • biofilm 5: enriched with nutrients for accelerated growth, having grown in a “preventive” model over three weeks. […] Thus, several (6 to 10) photographs of the same specimen were taken, the stained area was evaluated quantitatively by the image analysis software and a mean covered area value per specimen was calculated. This mean value was compared with the covered area of the untreated control specimens: a percentage reduction in covered area was then calculated.

CCCCCCCCCCCCOS(=O)(=O)[O-].[Na+] [SDS, Sodium dodecyl sulfate]
Result (removal; % covered area reduction) (biofilm 1; Treat. No. 1, 5%, RT, 40 min, Stat): ** (Moderate removal 25-50%) | Result (removal; % covered area reduction) (biofilm 1; Treat. No. 8, 5%, RT, 40 min, Recirc): */.

[O-][Cl+3]([O-])([O-])O [Perchlo ac, Perchloric acid]
Result (removal; % covered area reduction) (biofilm 1; Treat. No. 11, 0.05%, RT, 40 min, Stat): . (No removal 0)

O=C(O)CC(O)(CC(=O)O)C(=O)O [Citric acid]
Result (removal; % covered area reduction) (biofilm 2): **** (Excellent removal 75-99%) | Result (removal; % covered area reduction) (biofilm 1; Treat. No. 26, 3%, RT, 40 min, Recirc): . (No removal 0)

[K+].[OH-] [KOH]
Result (removal; % covered area reduction) (biofilm 1; Treat. No. 13, 0.02N, RT, 40 min, Stat): ** (Moderate removal 25-50%) | Result (removal; % covered area reduction) (biofilm 1; Treat. No. 15, 0.02N, RT, 40 min, Recirc): ** (Moderate removal 25-50%) | Result (removal; % covered area reduction) (biofilm 1; Treat. No. 21, 0.02N, RT, 1 h, Recirc): *** (Good removal 50-75%) | Result (removal; % covered area reduction) (biofilm 1; Treat. No. 22, 0.02N, RT, 24 h, Recirc): **** (Excellent removal 75-99%) | Result (removal; % covered area reduction) (biofilm 1; Treat. No. 27, 0.002N, RT, 40 min, Recirc): ** (Moderate removal 25-50%) | Result (removal; % covered area reduction) (biofilm 1; Treat. No. 35, 0.001N, RT, 40 min, Recirc): ** (Moderate removal 25-50%)

Triton
Result (removal; % covered area reduction) (biofilm 1; Treat. No. 2, 5%, RT, 40 min, Stat): * (Poor removal 0-25%) | Result (removal; % covered area reduction) (biofilm 1; Treat. No. 16, 5%, RT, 40 min, Recirc): . (No removal 0)

Trypsin
Result (removal; % covered area reduction) (biofilm 1; Treat. No. 6, EDTA IX, RT, 40 min, Stat): . (No removal 0) | Result (removal; % covered area reduction) (biofilm 1; Treat. No. 7, 0.25%, 37 °C, 40 min, Stat): ** (Moderate removal 25-50%) | Result (removal; % covered area reduction) (biofilm 1; Treat. No. 29, 0.25%, 37 °C, 40 min, Recirc): . (No removal 0) | Result (removal; % covered area reduction) (biofilm 1; Treat. No. 37, 1%, 37 °C, 40 min, Recirc): * (Poor removal 0-25%)

[Na+].[OH-] [NaOH]
Result (removal; % covered area reduction) (biofilm 1; Treat. No. 12, 0.01N, RT, 40 min, Stat): * (Poor removal 0-25%)

O=C(O)C(Cl)(Cl)Cl [TCA, Trichloroacetic acid]
Result (removal; % covered area reduction) (biofilm 1; Treat. No. 14, 0.25%, RT, 40 min, Stat): . (No removal 0)

B1: Thermolys: enzyme, Sigma (protein, UniProt P00800 233-548, looked up)
Thermolysin: ITGTSTVGVGRGVLGDQKNINTTYSTYYYLQDNTRGNGIFTYDAKYRTTLPGSLWADADNQFFASYDAPAVDAHYYAGVTYDYYKNVHNRLSYDGNNAAIRSSVHYSQGYNNAFWNGSQMVYGDGDGQTFIPLSGGIDVVAHELTHAVTDYTAGLIYQNESGAINEAISDIFGTLVEFYANKNPDWEIGEDVYTPGISGDSLRSMSDPAKYGDPDHYSKRYTGTQDNGGVHINSGIINKAAYLISQGGTHYGVSVVGIGRDKLGKIFYRALTQYLTPTSNFSQLRAAAVQSATDLYGSTSQEVASVKQAFDAVGVK
Result (removal; % covered area reduction) (biofilm 1; Treat. No. 33, 2 mg/50 ml, 37 °C, 40 min, Recirc): ** (Moderate removal 25-50%)
